The record followed here is US20120128795A1, “COLORLESS, NON-FUMING, HAZARDLESS AND STABLE AQUA-REGIA, ITS PREPARATION METHOD AND USE IN TREATING MEDICAL DISORDERS” (priority 2010, published 2012).

Assay [1] concerns castor oil-induced diarrhea in albino rats. Briefly: Castor oil-induced diarrhea (weight of faeces, rate of defecation). It counts as in vivo, Swiss albino rats. The note with it: STD group, 10 mg/kg i.p. As for the experimental part:
The anti-diarrheal activity of the hazardless and stable aqua-regia in terms of reduction of rate of defecation and consistency of faeces was tested on albino rats. In an embodiment, Swiss albino rats weighing 150-180 g of either sex were selected for the experiment. Animals were allowed to acclimatize for a period of 2 weeks in laboratory environment by housing them in a plurality of polypropylene cages. The polypropylene cages were maintained under standard laboratory conditions at an ambient temperature of 25° C. with 35%-60% humidity. Animals were fed with standard rat pellet diet.
Loperamide (standard reference anti-diarrheal drug), castor oil (laxative agent), and normal saline solution (0.9% NaCl) were used. […]
Animals of all the groups were placed separately in individual cages lined with filter paper. The filter paper was changed every 1 hour and the severity of diarrhea was assessed hourly for two hours. The total weight of faeces excreted were recorded within a period of two hours and compared with that of the control group. […]
(§1) Data were analyzed by one-way ANOVA followed by Dunnett's t-test using computerized Graph Pad InStat version 3.05.

For assay [2], the system named is intestinal transit of charcoal meal in albino rats. Put plainly: Gastrointestinal motility test (charcoal meal transit). It counts as in vivo, Swiss albino rats. The following applies: charcoal meal one hour after dosing, sacrificed thirty minutes later; aqua-regia 0.03 ml, atropine sulphate 0.1 mg/kg; control group 84.46%. As for the experimental part:
The use of the hazardless and stable aqua-regia in rehydrating body cells was tested on albino rats. In an embodiment, Swiss albino rats weighing 150-180 g of either sex were selected for the experiment. Animals were allowed to acclimatize for a period of 2 weeks in laboratory environment by housing them in a plurality of polypropylene cages. The polypropylene cages were maintained under standard laboratory conditions at an ambient temperature of 25° C. with 35%-60% humidity. Animals were fed with standard rat pellet diet.
Atropine sulphate (standard reference anti-diarrheal drug), charcoal meal (10% activated charcoal in 5% gum acacia) and vehicle (2% v/v Tween 80 in distilled water) were used. […]
The gastrointestinal motility test was conducted to illustrate use of aqua-regia in rehydrating body cells, according to an embodiment herein. […] The distance travelled by the charcoal meal was calculated. The distance covered by the charcoal meal in the intestine was expressed as a percentage of the total distance travelled from the pylorus to the caecum of each animal.
as §1

Consider `CN(C)C(=O)C(CCN1CCC(O)(c2ccc(Cl)cc2)CC1)(c1ccccc1)c1ccccc1` [loperamide, Loperamide], for which the diarrheal symptoms entry in assay [1] is recorded as “does not possess any diarrheal symptoms”.
As to `CN1[C@@H]2CC[C@H]1CC(OC(=O)C(CO)c1ccccc1)C2.CN1[C@@H]2CC[C@H]1CC(OC(=O)C(CO)c1ccccc1)C2.O=S(=O)(O)O` (some centres unmarked) [standard drug, Atropine sulphate], the “percentage transit (distance covered by charcoal meal as percentage of distance from pylorus to caecum)” value in assay [2] was determined as 55.57%.
